Measurements from ChEMBL document CHEMBL4507287, “Data for DCP probe MRL-650” (2021).
The source made the active and inactive calls. The rule behind the calls is not given here.

Tests used:
[1] = biological target: Serine/threonine-protein kinase STK11 (Homo sapiens) (UniProt Q15831); settings: Compound concentration 1000.0 nM
[2] = biological target: Sodium-dependent serotonin transporter (Homo sapiens) (UniProt P31645); settings: Compound concentration 10.0 uM
[3] = biological target: Sigma non-opioid intracellular receptor 1 (Homo sapiens, UniProt Q99720); assay: GPCRScan assay: inhibition of Sigma 1; design: radioligand conc. used [nm] 4.0 – 5.0, parental cells HEKT
[4] = biological target: Serine/threonine-protein kinase PAK 3 (Homo sapiens) (UniProt O75914); settings: Compound concentration 1000.0 nM
[5] = biological target: Vascular endothelial growth factor receptor 1 (Homo sapiens) (UniProt P17948); settings: Compound concentration 1000.0 nM
[6] = biological target: T1, Cannabinoid receptor 1 (Homo sapiens, UniProt P21554); assay: Functional activation assay
T1 sequence (P21554 whole entry): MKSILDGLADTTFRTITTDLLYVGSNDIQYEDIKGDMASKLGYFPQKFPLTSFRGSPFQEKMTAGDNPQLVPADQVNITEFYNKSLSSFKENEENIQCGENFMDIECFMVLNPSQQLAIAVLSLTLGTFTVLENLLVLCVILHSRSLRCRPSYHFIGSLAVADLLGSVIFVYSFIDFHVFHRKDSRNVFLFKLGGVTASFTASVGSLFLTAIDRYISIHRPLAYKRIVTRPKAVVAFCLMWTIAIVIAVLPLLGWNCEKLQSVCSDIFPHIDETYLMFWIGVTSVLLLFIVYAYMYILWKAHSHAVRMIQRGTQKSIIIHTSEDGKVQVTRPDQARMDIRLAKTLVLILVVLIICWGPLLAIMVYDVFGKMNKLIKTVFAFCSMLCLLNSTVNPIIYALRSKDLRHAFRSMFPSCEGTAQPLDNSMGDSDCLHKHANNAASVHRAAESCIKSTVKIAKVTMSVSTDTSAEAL

[7] = biological target: 5-hydroxytryptamine receptor 7 (Homo sapiens) (UniProt P34969); settings: Compound concentration 10.0 uM
[8] = system: Tyrosine-protein kinase ABL1 (Homo sapiens), P00519 [Q252H]; settings: Compound concentration 1000.0 nM
[9] = biological target: Serine/threonine-protein kinase WNK2 (Homo sapiens) (UniProt Q9Y3S1); settings: Compound concentration 1000.0 nM
Serine/threonine-protein kinase WNK2 (Homo sapiens), sequence (Q9Y3S1 whole entry): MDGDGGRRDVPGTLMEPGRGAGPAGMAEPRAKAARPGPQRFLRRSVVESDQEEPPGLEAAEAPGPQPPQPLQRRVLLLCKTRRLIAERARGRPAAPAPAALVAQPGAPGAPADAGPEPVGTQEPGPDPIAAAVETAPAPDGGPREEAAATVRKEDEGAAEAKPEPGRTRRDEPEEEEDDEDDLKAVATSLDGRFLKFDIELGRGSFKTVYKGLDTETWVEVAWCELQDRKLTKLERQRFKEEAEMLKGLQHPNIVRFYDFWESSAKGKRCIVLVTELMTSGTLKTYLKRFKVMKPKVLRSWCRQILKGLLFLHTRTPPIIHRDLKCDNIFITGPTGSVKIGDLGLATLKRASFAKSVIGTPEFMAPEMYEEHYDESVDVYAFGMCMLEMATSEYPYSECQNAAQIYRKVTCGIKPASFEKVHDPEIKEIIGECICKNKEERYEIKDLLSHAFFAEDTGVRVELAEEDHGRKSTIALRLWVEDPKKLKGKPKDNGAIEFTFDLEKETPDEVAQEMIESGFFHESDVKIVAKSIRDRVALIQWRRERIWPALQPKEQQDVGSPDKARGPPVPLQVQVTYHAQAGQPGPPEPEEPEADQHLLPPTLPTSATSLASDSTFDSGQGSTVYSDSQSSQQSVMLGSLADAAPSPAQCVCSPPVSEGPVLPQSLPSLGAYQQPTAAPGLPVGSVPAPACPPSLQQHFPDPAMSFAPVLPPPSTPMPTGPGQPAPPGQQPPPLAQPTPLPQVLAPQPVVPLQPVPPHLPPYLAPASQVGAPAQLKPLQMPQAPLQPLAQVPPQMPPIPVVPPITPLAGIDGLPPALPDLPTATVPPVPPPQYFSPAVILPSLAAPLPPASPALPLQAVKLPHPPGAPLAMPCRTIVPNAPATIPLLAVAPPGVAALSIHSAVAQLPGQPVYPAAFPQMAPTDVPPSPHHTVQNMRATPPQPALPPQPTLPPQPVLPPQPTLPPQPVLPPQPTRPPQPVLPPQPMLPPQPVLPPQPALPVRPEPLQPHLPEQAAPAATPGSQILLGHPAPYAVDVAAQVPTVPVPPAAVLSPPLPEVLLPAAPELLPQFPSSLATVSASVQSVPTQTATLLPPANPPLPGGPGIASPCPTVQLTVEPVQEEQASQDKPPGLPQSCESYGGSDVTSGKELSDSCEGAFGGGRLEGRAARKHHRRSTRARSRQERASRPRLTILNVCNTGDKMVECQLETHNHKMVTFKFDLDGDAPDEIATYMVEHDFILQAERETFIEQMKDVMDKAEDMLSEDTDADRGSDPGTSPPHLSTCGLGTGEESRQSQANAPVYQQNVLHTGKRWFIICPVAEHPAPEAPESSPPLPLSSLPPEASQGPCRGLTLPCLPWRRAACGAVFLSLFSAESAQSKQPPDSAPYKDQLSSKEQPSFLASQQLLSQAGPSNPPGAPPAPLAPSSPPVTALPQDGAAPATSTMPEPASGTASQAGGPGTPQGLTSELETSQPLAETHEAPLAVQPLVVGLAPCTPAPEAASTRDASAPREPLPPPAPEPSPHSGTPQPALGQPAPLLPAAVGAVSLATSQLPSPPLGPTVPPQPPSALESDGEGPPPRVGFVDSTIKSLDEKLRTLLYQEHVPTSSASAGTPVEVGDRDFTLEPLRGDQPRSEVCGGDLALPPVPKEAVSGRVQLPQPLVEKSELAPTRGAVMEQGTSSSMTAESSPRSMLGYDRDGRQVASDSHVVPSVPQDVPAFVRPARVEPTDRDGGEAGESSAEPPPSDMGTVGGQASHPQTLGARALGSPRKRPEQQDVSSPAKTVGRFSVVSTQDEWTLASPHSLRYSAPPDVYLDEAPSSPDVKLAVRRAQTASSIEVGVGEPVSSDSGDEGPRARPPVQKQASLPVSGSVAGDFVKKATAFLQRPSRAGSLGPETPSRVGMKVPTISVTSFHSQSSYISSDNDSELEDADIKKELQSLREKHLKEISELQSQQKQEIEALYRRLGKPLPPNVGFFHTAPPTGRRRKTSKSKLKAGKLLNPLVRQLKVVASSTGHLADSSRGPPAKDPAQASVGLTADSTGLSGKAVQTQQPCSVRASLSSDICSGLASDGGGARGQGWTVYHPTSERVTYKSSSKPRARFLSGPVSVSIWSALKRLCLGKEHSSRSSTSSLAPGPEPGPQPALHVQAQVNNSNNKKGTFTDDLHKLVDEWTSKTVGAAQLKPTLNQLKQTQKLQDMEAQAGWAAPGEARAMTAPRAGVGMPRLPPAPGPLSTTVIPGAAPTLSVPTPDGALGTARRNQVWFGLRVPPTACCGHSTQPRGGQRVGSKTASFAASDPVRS

[10] = biological target: Kappa-type opioid receptor (Homo sapiens) (UniProt P41145); settings: Compound concentration 10.0 uM
[11] = biological target: Histamine H1 receptor (Homo sapiens) (UniProt P35367); settings: Compound concentration 10.0 uM
Histamine H1 receptor (Homo sapiens), sequence (P35367 whole entry): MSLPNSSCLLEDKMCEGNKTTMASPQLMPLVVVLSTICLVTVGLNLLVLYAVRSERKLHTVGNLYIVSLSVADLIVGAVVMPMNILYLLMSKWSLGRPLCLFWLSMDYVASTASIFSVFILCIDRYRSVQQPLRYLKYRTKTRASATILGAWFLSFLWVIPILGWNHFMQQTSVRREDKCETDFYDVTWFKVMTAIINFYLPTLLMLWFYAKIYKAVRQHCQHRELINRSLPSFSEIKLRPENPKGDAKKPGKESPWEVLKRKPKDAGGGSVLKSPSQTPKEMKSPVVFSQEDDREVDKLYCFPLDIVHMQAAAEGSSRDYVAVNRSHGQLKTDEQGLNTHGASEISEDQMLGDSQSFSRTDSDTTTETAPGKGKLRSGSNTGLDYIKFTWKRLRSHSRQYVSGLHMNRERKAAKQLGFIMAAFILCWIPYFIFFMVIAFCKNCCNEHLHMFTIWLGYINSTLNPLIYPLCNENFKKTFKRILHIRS

[12] = biological target: Histamine H4 receptor (Homo sapiens) (UniProt Q9H3N8); settings: Compound concentration 10.0 uM
[13] = biological target: Protein kinase C delta type (Homo sapiens) (UniProt Q05655); settings: Compound concentration 1000.0 nM
[14] = biological target: Sigma intracellular receptor 2 (Homo sapiens, UniProt Q5BJF2); assay: GPCRScan assay: inhibition of Sigma 2; design: radioligand conc. used [nm] 5.0, parental cells HEKT
[15] = biological target: Tyrosine-protein kinase Fgr (Homo sapiens) (UniProt P09769); settings: Compound concentration 1000.0 nM
Tyrosine-protein kinase Fgr (Homo sapiens), sequence (P09769 2-529 limits assumed): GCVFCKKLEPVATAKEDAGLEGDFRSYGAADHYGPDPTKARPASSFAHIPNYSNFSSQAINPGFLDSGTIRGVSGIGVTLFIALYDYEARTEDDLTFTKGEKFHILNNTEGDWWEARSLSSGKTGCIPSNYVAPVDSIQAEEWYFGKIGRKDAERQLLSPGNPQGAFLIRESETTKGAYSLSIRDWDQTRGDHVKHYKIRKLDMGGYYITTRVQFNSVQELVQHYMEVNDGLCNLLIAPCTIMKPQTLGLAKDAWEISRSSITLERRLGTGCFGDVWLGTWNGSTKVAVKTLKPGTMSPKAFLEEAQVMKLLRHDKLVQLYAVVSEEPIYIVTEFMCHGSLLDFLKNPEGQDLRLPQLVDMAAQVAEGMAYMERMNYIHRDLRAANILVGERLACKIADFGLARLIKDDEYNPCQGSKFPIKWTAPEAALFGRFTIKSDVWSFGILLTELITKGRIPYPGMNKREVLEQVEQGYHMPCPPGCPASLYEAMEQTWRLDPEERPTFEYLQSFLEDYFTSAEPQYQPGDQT

[16] = biological target: SRSF protein kinase 1 (Homo sapiens) (UniProt Q96SB4); settings: Compound concentration 1000.0 nM
[17] = GPCRScan assay: inhibition of GABA/PBR; design: species or system Rattus norvegicus; radioligand conc. used [nm] 0.3 – 2.0, parental cells brain tissue
[18] = biological target: 5-hydroxytryptamine receptor 6 (Homo sapiens) (UniProt P50406); settings: Compound concentration 10.0 uM
[19] = biological target: Proto-oncogene tyrosine-protein kinase Src (Homo sapiens) (UniProt P12931); settings: Compound concentration 1000.0 nM
Proto-oncogene tyrosine-protein kinase Src (Homo sapiens), sequence (P12931 2-536 limits assumed): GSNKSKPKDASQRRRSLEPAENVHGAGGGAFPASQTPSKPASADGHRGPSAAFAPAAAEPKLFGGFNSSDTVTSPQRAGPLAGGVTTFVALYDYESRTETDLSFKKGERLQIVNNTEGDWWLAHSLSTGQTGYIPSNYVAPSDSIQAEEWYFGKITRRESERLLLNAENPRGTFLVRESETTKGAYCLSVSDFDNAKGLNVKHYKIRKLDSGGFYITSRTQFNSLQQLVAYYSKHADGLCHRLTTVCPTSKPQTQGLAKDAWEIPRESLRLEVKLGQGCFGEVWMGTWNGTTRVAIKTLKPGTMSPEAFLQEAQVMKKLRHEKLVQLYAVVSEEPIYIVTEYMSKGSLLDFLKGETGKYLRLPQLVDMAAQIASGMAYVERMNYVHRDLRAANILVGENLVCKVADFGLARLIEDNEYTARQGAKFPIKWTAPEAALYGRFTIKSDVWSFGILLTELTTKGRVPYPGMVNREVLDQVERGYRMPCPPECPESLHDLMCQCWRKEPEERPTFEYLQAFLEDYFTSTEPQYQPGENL

[20] = biological target: Calcium/calmodulin-dependent protein kinase type 1G (Homo sapiens) (UniProt Q96NX5); settings: Compound concentration 1000.0 nM
[21] = biological target: Serine/threonine-protein kinase DCLK3 (Homo sapiens) (UniProt Q9C098); settings: Compound concentration 1000.0 nM
Serine/threonine-protein kinase DCLK3 (Homo sapiens), sequence (Q9C098 whole entry): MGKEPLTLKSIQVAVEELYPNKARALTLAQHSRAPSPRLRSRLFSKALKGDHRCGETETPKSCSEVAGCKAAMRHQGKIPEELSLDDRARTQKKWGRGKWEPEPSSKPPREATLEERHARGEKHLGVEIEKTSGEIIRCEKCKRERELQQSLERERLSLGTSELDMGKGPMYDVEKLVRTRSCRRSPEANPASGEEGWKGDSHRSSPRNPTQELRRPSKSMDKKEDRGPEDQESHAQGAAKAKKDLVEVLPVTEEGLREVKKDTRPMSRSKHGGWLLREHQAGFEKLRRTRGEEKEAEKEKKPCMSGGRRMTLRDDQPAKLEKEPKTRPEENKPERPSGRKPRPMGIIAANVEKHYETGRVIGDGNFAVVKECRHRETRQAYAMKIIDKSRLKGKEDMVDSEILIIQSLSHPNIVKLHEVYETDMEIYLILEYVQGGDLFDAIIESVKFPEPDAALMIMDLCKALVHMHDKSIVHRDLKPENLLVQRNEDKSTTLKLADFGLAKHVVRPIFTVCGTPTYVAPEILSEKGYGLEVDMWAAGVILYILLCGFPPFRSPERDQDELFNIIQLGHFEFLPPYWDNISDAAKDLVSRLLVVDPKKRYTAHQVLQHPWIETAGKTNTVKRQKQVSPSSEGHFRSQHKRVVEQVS

[22] = biological target: 5-hydroxytryptamine receptor 2C (Homo sapiens, UniProt P28335); assay: GPCRScan assay: inhibition of 5-HT2C; design: radioligand conc. used [nm] 1.0 – 2.5, parental cells HEK T
[23] = biological target: 5-hydroxytryptamine receptor 1A (Homo sapiens) (UniProt P08908); settings: Compound concentration 10.0 uM
[24] = biological target: 5-hydroxytryptamine receptor 2A (Homo sapiens, UniProt P28223); assay: GPCRScan assay: inhibition of 5-HT2A; design: radioligand conc. used [nm] 1.2 – 2.4, parental cells HEKT
[25] = biological target: T1, Cannabinoid receptor 1; assay: Radioligand Binding Assay (CNR1)
[26] = biological target: Delta-type opioid receptor (Homo sapiens, UniProt P41143); assay: GPCRScan assay: inhibition of DOR; design: radioligand conc. used [nm] 1.0 – 2.0, parental cells stable HEK
[27] = biological target: Beta-3 adrenergic receptor (Homo sapiens, UniProt P13945); assay: GPCRScan assay: inhibition of Beta3; design: radioligand conc. used [nm] 0.2 – 0.5, parental cells HEK Flp-In
[28] = biological target: Beta-1 adrenergic receptor (Homo sapiens) (UniProt P08588); settings: Compound concentration 10.0 uM
[29] = biological target: Alpha-2C adrenergic receptor (Homo sapiens, UniProt P18825); assay: GPCRScan assay: inhibition of Alpha2C; design: radioligand conc. used [nm] 0.5 – 1.0, parental cells stable MDCK
[30] = biological target: Sodium-dependent dopamine transporter (Homo sapiens, UniProt Q01959); assay: GPCRScan assay: inhibition of DAT; design: radioligand conc. used [nm] 3.6 – 16.0, parental cells stable HEK
[31] = biological target: GABA-A receptor; anion channel (Rattus norvegicus) (UniProt O09028+P15431+P18506+P18508+P19969+P20236+P23574+P23576+P28471+P28473+P30191+P62813+P63079+P63138+Q91ZM7+Q9ES14); settings: Compound concentration 10.0 uM
[32] = biological target: GABA-A receptor; anion channel; assay: GPCRScan assay: inhibition of GABAA/BZP; assay type: protein-complex assay, Rattus norvegicus; design: radioligand conc. used [nm] 0.6 – 4.0, parental cells brain tissue
[33] = biological target: 5-hydroxytryptamine receptor 1E (Homo sapiens) (UniProt P28566); settings: Compound concentration 10.0 uM
[34] = biological target: Alpha-2B adrenergic receptor (Homo sapiens, UniProt P18089); assay: GPCRScan assay: inhibition of Alpha2B; design: radioligand conc. used [nm] 1.5 – 2.0, parental cells HEKT

SMILES | residual activity [1] [%] | residual activity [4] [%] | residual activity [5] [%] | residual activity [8] [%] | residual activity [9] [%] | inhibition [10] [%] | inhibition [11] [%] | residual activity [13] [%] | residual activity [15] [%] | residual activity [16] [%] | residual activity [19] [%] | residual activity [20] [%] | residual activity [21] [%] | other results
CC(=O)Nc1c(C(C)=O)c(=O)n(C)c2nc(-c3ccc(Cl)cc3Cl)c(-c3ccc(Cl)cc3)cc12 [NAPHTHYRIDINONE] | 43 | 100 | 100 | 72 | 95 | 7.96 | -1.39 | 100 | 100 | 100 | 100 | 100 | 100 | inhibition [2]: -9.53%; Ki [3]: 1160 nM; EC50 [6]: 4.9 nM (active); inhibition [7]: 0.657%; inhibition [12]: 13.9%; Ki [14]: 605 nM; Ki [17]: 82 nM; pKi [17]: 7.09; inhibition [18]: -3.97%
CC(=O)c1c(NS(C)(=O)=O)c2cc(-c3ccc(Cl)cc3)c(-c3ccc(Cl)cc3Cl)nc2n(C)c1=O [MRL-CB1-NC] | 100 | 100 | 100 | 76 | 62 | 2.99 | 18.8 | 98 | 100 | 100 | 100 | 100 | 100 | Ki [22]: 22 nM; inhibition [23]: 28.7%; Ki [24]: 1810 nM; Inverse agonism [25]: 32.5%; Ki [26]: 1410 nM; Ki [27]: 1130 nM; inhibition [28]: 25.6%; Ki [29]: 10000 nM; Ki ([30]; read-out: Ki): 766 nM; Ki ([30]; read-out: pKi (converted)): 794 nM; inhibition [31]: 0.954%; Ki [32]: 1660 nM; inhibition [33]: 29.2%; Ki [34]: 1690 nM
